Experimental data published in BindingDB's records for doi:10.7270/Q290226P (Vanderbilt Screening Center For Gpcrs, Ion Channels and …, 2010).

The molecules below were run against T1, Muscarinic acetylcholine receptor M5 (Homo sapiens, UniProt P08912) (assay: PubChem AID 2186).
T1 sequence (P08912 whole entry): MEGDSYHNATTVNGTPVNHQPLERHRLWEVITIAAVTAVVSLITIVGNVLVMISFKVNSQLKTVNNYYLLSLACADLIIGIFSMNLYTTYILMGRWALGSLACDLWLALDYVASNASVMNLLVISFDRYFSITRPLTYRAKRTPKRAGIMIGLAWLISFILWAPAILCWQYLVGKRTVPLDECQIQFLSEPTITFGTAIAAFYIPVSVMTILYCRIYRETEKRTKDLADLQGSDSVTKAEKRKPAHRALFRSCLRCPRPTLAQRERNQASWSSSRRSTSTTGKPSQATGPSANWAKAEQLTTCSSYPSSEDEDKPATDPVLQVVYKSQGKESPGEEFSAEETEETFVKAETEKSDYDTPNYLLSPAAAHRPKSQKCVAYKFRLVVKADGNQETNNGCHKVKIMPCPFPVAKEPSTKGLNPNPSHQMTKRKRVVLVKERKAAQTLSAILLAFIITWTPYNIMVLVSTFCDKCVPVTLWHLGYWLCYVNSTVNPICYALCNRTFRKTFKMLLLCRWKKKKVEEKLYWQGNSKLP

Row | Structure (SMILES) | EC50
1 | O=C1C(=O)N(Cc2ccc(-c3ccccc3)cc2)c2ccc(OC(F)(F)F)cc21 | > 442 nM
2 | O=C1C(=O)N(Cc2ccc(-c3ccsc3)cc2)c2ccc(OC(F)(F)F)cc21 | > 442 nM
3 | COc1ccc(CN2C(=O)C(=O)c3cc(OC(F)(F)F)ccc32)cc1 [VU0238429] | 0.512 nM
